In patent US20190290694A1, “STABLY ENGINEREED PROTEASOME INHIBITOR RESISTANT IMMUNE CELLS FOR IMMUNOTHERAPY” (CELLECTIS, priority 2016, published 2019):
pEC50: −log10 of the molar value.

Key:
[1] = system: CART cells that express mutated PSMB5; experiment: Bortezomib dose response, viability of CART cells coexpressing mutated PSMB5; format: cell-based, human; conditions: CART cells that express mutated PSMB5 as compared to WT CART cells and NT cells, 48h, FIG. 4
Description: (§1) To investigate whether overexpressing POMP, PSMB5 or mutated PSMB5 on CART cells confers resistance to bortezomib treatment, T-cells frozen PBMCs were thawed and activated using Dynabeads human T activator CD3/CD28. 3 days after their activation 1 million T-cells were transduced or not using the CD123 CAR and one of the ORF at a MOI of 5 for both lentiviral particles. Cells were then immediately diluted in X-Vivo-15 media supplemented by 20 ng/ml IL-2 and 5% human serum AB and diluted at 1×10^6 cells/ml and kept in culture at 37° C. in the presence of 5% CO2. 7 days later, T cells, CART cells and MOLM13 cells were cultured for 48h in the presence of increasing doses of bortezomib ranging from 0 to 100 μM. At the end of the culture cell viability was assessed by flow cytometry using a live dead cell marker.

primary T cell = experiment: Bortezomib dose response, viability of primary T cells by flow cytometry (live dead cell marker); format: cell-based; conditions: Homo sapiens, cultured for 48h with bortezomib, FIG. 1A, read-out: EC50 of Bortezomib (cell depletion / viability)
Excerpt: (§2) Peripheral blood mononuclear cells (PBMC) were obtained from healthy volunteer donors as described by Schwartz J. et al. (Guidelines on the use of therapeutic apheresis in clinical practice-evidence-based approach from the Writing Committee of the American Society for Apheresis: the sixth special issue (2013) J Clin Apher. 28(3):145-284).
(§3) To investigate whether bortezomib treatment modify the survival of primary cells, frozen PBMCs were thawed and activated using Dynabeads human T activator CD3/CD28. 3 days after their activation, 1 million cells were transduced using a CD123 CAR (specific for CD123) at a MOI of 5. Cells were then immediately diluted in X-Vivo-15 media supplemented by 20 ng/ml IL-2 and 5% human serum AB and diluted at 1×10^6 cells/ml and kept in culture at 37° C. in the presence of 5% CO2. […] At the end of the culture cell viability was assessed by flow cytometry using a live dead cell marker.

MOLM13 cell line = experiment: Bortezomib dose response, viability of MOLM13 cells by flow cytometry; format: cell-based; conditions: Homo sapiens, MOLM-13, cultured for 48h with bortezomib, FIG. 1C, read-out: EC50 of Bortezomib (cell depletion / viability)
Description: as §3

[2] = system: CART cells that express PSMB5; experiment: Bortezomib dose response, viability of CART cells coexpressing PSMB5; format: cell-based, human; conditions: CART cells that express PSMB5 as compared to WT CART cells and NT cells, 48h, FIG. 4
Description: as §1

[3] = system: primary CAR T-cell (CAR anti-CD123); experiment: Bortezomib dose response, viability of primary CAR T-cells (CAR anti-CD123) by flow cytometry; format: cell-based, human
Excerpt: as §2
To investigate whether bortezomib treatment modify the survival of primary cells, frozen PBMCs were thawed and activated using Dynabeads human T activator CD3/CD28. 3 days after their activation, 1 million cells were transduced using a CD123 CAR (specific for CD123) at a MOI of 5. Cells were then immediately diluted in X-Vivo-15 media supplemented by 20 ng/ml IL-2 and 5% human serum AB and diluted at 1×10^6 cells/ml and kept in culture at 37° C. in the presence of 5% CO2. 7 days later, T cells, CART cells and MOLM13 cells were cultured for 48h in the presence of bortezomib increasing doses of bortezomib ranging from 0 nM to […]. At the end of the culture cell viability was assessed by flow cytometry using a live dead cell marker.
To investigate whether overexpressing POMP, PSMB5 or mutated PSMB5 on CART cells confers resistance to bortezomib treatment, T-cells frozen PBMCs were thawed and activated using Dynabeads human T activator CD3/CD28. […] At the end of the culture cell viability was assessed by flow cytometry using a live dead cell marker.

[4] = system: GECKO-transduced primary T-cells; experiment: Puromycine resistance test of mock- and GECKO-transduced primary T-cells (viability by flow cytometry); format: cell-based, human; parameters: dose or concentration left out as unconfirmed; conditions: GECKO-transduced versus mock T-cells, 3 days, simultaneous activation/transduction, FIG. 5
Description: Peripheral blood mononuclear cells (PBMC) were obtained from healthy volunteer donors and T-lymphocytes were purified using the EasySep human T-cell enrichment kit (Stemcell Technologies). By contrast with the GECKO protocol described by Shalem et al., primary T-cells were activated and immediately transduced with the viral particles. The T-cells were first mixed with dynabeads (25 uL/10^6 T-cells) in Xvivo-15 media and then plated on 12 well plates coated by 30 ug/mL retronectin per well (iml of retronectin per well incubated 1 hour at 37° C. followed by a washing steps using 1 ml of PBS 2% FBS) in a total volume of 400 μL. The mixture was supplemented by either 200 μL of GECKO lentiviral particles or 200 μL of Xvivo-15 media and incubated 2H at 37° C. and 5% CO2. The mixture was then supplemented by 600 μL of Xvivo-15 media, 10% AB serum and 40 ng/mL IL2 and incubated overnight at 37° C. with 5% CO2. Cells were then washed with 1.5 ml of Xvivo-15 media and resuspended in Xvivo-15 media, 5% AB serum, 20 ng/mL IL-2 in 6 wells plate at 10^6 cells/mL.
3 days post transduction, cells were recovered and used to perform a puromycine resistance test. […] FIG. 2 illustrates the puromycine sensitivity pattern of mock- and GECKO-transduced primary T-cells determined by flow cytometry. […] Cells are then recovered, labeled using EFluor780 dye and analyzed by flow cytometry to determine their viability. […]

| pEC50 (MOLM13 cell line) | Compound | EC50 of bortezomib, change [1] | pEC50 (primary T cell) | EC50 of bortezomib, change [2] | EC50 of bortezomib, change ([3]; CART cells as compared to non-transduced cells, 48h, FIG. 4) | pEC50 ([3]; Homo sapiens, T-cell, primary CART cells (CD123 CAR), cultured for 48h with bortezomib, FIG. 1B, read-out: EC50 of Bortezomib (cell depletion / viability)) | puromycine sensitivity (viability frequency) [4] |
| --- | --- | --- | --- | --- | --- | --- | --- |
| ~8.00 | CC(C)C[C@H](NC(=O)[C@H](Cc1ccccc1)NC(=O)c1cnccn1)B(O)O [bortezomib] | increased | ~8.00 | increased | increased | ~8.00 | – |
| – | COc1ccc(C[C@H](N)C(=O)N[C@H]2[C@@H](O)[C@H](n3cnc4c(N(C)C)ncnc43)O[C@@H]2CO)cc1 [puromycine] | – | – | – | – | – | more resistance |
